Laboratory results reported in PMC9652379, “Safety evaluations of a synthetic antimicrobial peptide administered intravenously in rats and dogs” (Scientific Reports, 2022).
Where two headings read alike, the source gives them in different places. Positions of bridges follow the written chain, without caps; N, C: chain ends. Non-standard residues stand in square brackets, D forms with d. Residues, ends and D or L forms follow the SMILES beside them. Chains are numbered I, II in the order given. βAla = NCCC(=O)O

What was measured:
[1] = Toxicokinetics in dogs, 4 weeks daily 1-h iv infusion; format: in vivo; conditions: dog; for Cmax / tmax / AUC0-24 / AUC(0-t): iv
Experimental: Plasma concentrations and the main toxicokinetic parameters of SET-M33 in plasma samples were determined in beagle dogs after intravenous administration of SET-M33 by daily 1-h-infusion at 0.5, 1.5 or 4.0 mg/kg/day or only vehicle for 4 weeks (5 animals/group/sex). Blood samples were taken on day 1 and day 28.
The time when the maximum plasma concentration occurred (Tmax) was at the end of the 1-h infusion in all animals, as expected for this route of administration. Plasma concentrations of SET-M33 at 24 h post-dose were below the limit of quantification (< 20.0 ng/ml) in all animals at all dose levels on day 1 and day 28 (not shown).
On days 1 and 28, blood samples were obtained for toxicokinetic determinations from all animals at the following times: Day 1 at the end of infusion and 5, 10, 15, 30, 60 and 180 min later; […] and 24 h ± 30 min post-dose; Day 28 at the end of infusion and 5, 10, 15, 30, 60 and 180 min later; […] and 24 h ± 30 min post-dose. Blood samples were collected into lithium heparin test tubes and kept in an ice bath until centrifuging (1600 g for 10 min at 2–8 °C). The plasma obtained from each sample was transferred to a fresh polypropylenes test tubes, immediately frozen in dry ice and stored at − 20 °C ± 5. Bioanalytical samples were analysed by a validated liquid chromatographic mass spectrometric assay. Pharmacokinetic parameters were calculated using the computer program Phoenix WinNonlin version 6.3 (Certara USA, Inc).

Sprague Dawley rats [2] = test: Four-week toxicity study with 2-week recovery in rats: mortality, clinical signs, body weight; format: in vivo, rat; conditions: for weight loss of euthanized animal: 15 mg/kg/day
Experimental: The purpose of this study was to evaluate the toxic effects of SET-M33 when administered intravenously to Sprague Dawley rats for 4 weeks. Recovery was evaluated during a 14-day drug-free period. The peptide was administered once a day at three dose levels at 5, 9 and 15 mg/kg/day, and the control group was treated with the vehicle (ten males and ten females per group which were sacrificed after 4 weeks for clinical and necroscopy analyses; five males and five females for the control and 15 mg/kg/day groups which were sacrificed after the 2 weeks recovery period). The higher dose was selected on the basis of the DRF study (above) in which evident toxicity was recorded at the dose of 20 mg/kg. The efficacy dose in mouse is 5 mg/kg[24]. The lowest dose of this test is approximately twice the equivalent efficacy dose in rat (using body surface area) and the intermediate dose is approximately the geometric mean of the other two.
One male died on day 8 and one male and one female were euthanized for animal welfare reasons on days 6 and 10 of the recovery period, respectively, after showing various clinical signs (hunched back, abnormal gait and pallor) and weight loss of 14% and 11%, respectively. SET-M33-related effects consisting of decreased motor activity, irregular breathing, piloerection, closed or partially closed eyelids, abnormal gait and hunched back were recorded in animals treated at 15 mg/kg/day just after administration for the whole treatment period (as in the DRF study above). […] Among animals that had to be sacrificed for welfare reasons, abnormal gait, partially closed eyelids (the male) and decreased motor activity and piloerection (the female) were also recorded from day 3 onwards. […] During the recovery period, body-weight loss (between 2 and 14% based on individual values) was recorded in some animals dosed at 15 mg/kg/day.
Viability/mortality was monitored twice daily throughout the study. Detailed clinical signs were evaluated once at pre-test, once/twice daily during the treatment period and on days 1, 8, 10 to 14 of the recovery period. […]

Sprague Dawley rats [3] = test: Dose range finding in rats: haematology, clinical biochemistry, urinalysis; format: in vivo, rat; conditions: female rats, 7 days, mean ± SD
Experimental: Clinical haematology, biochemistry and urinalysis parameters were evaluated in animals in Phase II at the end of the treatment period. A complete list of parameters is reported in Materials and Methods. Administration of SET-M33 at 10 and 20 mg/kg/day for 7 days caused a statistically significant decrease of reticulocytes in males and females. […] There were significant differences in other parameters, such as glucose (males at 10 and 20 mg/kg/day), cholesterol (males at 20 mg/kg/day), triglycerides (females at 20 mg/kg/day), electrolytes, total protein and albumin (males at 20 mg/kg/day). Increased urine volume and lower specific gravity compared to the control group was recorded in both sexes at both doses. […]
Blood samples were drawn from the retro-orbital plexus of all animals under light isoflurane anaesthesia. […] The following parameters were determined using an ADVIA 120 haematology analyser (Siemens Healthcare): Red blood cell count (RBC), haemoglobin (Hb), haematocrit (Hct), mean corpuscular volume (MCV), mean corpuscular haemoglobin (MCH), mean corpuscular haemoglobin concentration (MCHC), reticulocyte count (absolute and relative) (Retic), platelet count (Plt), total leukocyte count (WBC), neutrophils (N), lymphocytes (L), monocytes (M), eosinophils (E), basophils (B), large unstained cells (LUC). […]

[4] = female, beagle, in vivo, 4 mg/kg/day
[5] = male, beagle, in vivo, 0.5 mg/kg/day
[6] = male, beagle, in vivo, 4 mg/kg/day

With `CC[C@H](C)[C@H](NC(=O)[C@H](CCCCN)NC(=O)[C@@H](N)CCCCN)C(=O)N[C@@H](CCCNC(=N)N)C(=O)N[C@H](C(=O)N[C@@H](CCCNC(=N)N)C(=O)N[C@@H](CC(C)C)C(=O)N[C@@H](CO)C(=O)N[C@@H](C)C(=O)NCCCC[C@H](NC(=O)[C@H](C)NC(=O)[C@H](CO)NC(=O)[C@H](CC(C)C)NC(=O)[C@H](CCCNC(=N)N)NC(=O)[C@@H](NC(=O)[C@H](CCCNC(=N)N)NC(=O)[C@@H](NC(=O)[C@H](CCCCN)NC(=O)[C@@H](N)CCCCN)[C@@H](C)CC)C(C)C)C(=O)NCCCC[C@H](NC(=O)[C@H](CCCCNC(=O)[C@H](C)NC(=O)[C@H](CO)NC(=O)[C@H](CC(C)C)NC(=O)[C@H](CCCNC(=N)N)NC(=O)[C@@H](NC(=O)[C@H](CCCNC(=N)N)NC(=O)[C@@H](NC(=O)[C@H](CCCCN)NC(=O)[C@@H](N)CCCCN)[C@@H](C)CC)C(C)C)NC(=O)[C@H](C)NC(=O)[C@H](CO)NC(=O)[C@H](CC(C)C)NC(=O)[C@H](CCCNC(=N)N)NC(=O)[C@@H](NC(=O)[C@H](CCCNC(=N)N)NC(=O)[C@@H](NC(=O)[C@H](CCCCN)NC(=O)[C@@H](N)CCCCN)[C@@H](C)CC)C(C)C)C(=O)NCCC(=O)O)C(C)C` [SET-M33] (I: H-KKIRVRLSAKK[βAla]-OH / II: H-KKIRVRLSAK / III: H-KKIRVRLSA / IV: H-KKIRVRLSA; amide I:10-IV:C, I:11-II:C, II:10-III:C (inferred); N-terminus and C-terminus assumed) as the molecule, how does the “Cmax and AUC0-24 relative to values predicted for a linear relationship” value ([1]; in vivo, 4 mg/kg/day) read?
Its value is “approximately 2.1 times”.

What about the Cmax ([1]; in vivo, 0.5 mg/kg/day) of the same molecule?
Its Cmax is 82.8 ± 19.1 ng/mL.

And the tmax ([1]; in vivo, 0.5 mg/kg/day)?
Its tmax is “EOI”.

What about the tmax ([1]; in vivo, 1.5 mg/kg/day) of the same molecule?
The tmax was “EOI”.

What about the tmax ([1]; in vivo, 4 mg/kg/day) of the same molecule?
The tmax was “EOI”.

What about the AUC0-24 ([1]; female, beagle, in vivo, 0.5 mg/kg/day) of the same molecule?
Its AUC0-24 is 45.6 ± 10.4 ng·h/mL.

What about the AUC(0-t) ([1]; female, beagle, in vivo, 0.5 mg/kg/day, AUC0-24) of the same molecule?
The AUC(0-t) was 76.5 ± 25.2 ng·h/mL.

And the Cmax ([1]; female, beagle, in vivo, 0.5 mg/kg/day, Cmax)?
The Cmax was 125 ± 35 ng/mL.

And the Cmax ([1]; female, beagle, in vivo, 1.5 mg/kg/day)?
Its Cmax is 345 ± 87 ng/mL.

And the Cmax ([1]; female, beagle, in vivo, 1.5 mg/kg/day, Cmax)?
Its Cmax is 645 ± 121 ng/mL.

And the AUC0-24 [1, 4]?
The AUC0-24 was 991 ± 161 ng·h/mL.

And the Cmax [1, 4]?
Its Cmax is 1360 ± 220 ng/mL.

What about the AUC(0-t) ([1]; female, beagle, in vivo, 4 mg/kg/day, AUC0-24) of the same molecule?
The AUC(0-t) was 1550 ± 450 ng·h/mL.

And the Cmax ([1]; female, beagle, in vivo, 4 mg/kg/day, Cmax)?
The Cmax was 1930 ± 350 ng/mL.

And the AUC0-24 [1, 5]?
Its AUC0-24 is 42.2 ± 13.3 ng·h/mL.

And the Cmax [1, 5]?
Its Cmax is 82.4 ± 22.4 ng/mL.

What about the AUC(0-t) ([1]; male, beagle, in vivo, 0.5 mg/kg/day, AUC0-24) of the same molecule?
Its AUC(0-t) is 83 ± 9.8 ng·h/mL.

And the Cmax ([1]; male, beagle, in vivo, 0.5 mg/kg/day, Cmax)?
Its Cmax is 149 ± 16 ng/mL.

What about the Cmax ([1]; male, beagle, in vivo, 1.5 mg/kg/day) of the same molecule?
Its Cmax is 274 ± 110 ng/mL.

What about the AUC(0-t) ([1]; male, beagle, in vivo, 1.5 mg/kg/day, AUC0-24) of the same molecule?
Its AUC(0-t) is 157 ± 60 ng·h/mL.

What about the Cmax ([1]; male, beagle, in vivo, 1.5 mg/kg/day, Cmax) of the same molecule?
The Cmax was 470 ± 218 ng/mL.

What about the AUC0-24 [1, 6] of the same molecule?
The AUC0-24 was 569 ± 99 ng·h/mL.

And the Cmax [1, 6]?
Its Cmax is 816 ± 188 ng/mL.

And the AUC(0-t) ([1]; male, beagle, in vivo, 4 mg/kg/day, AUC0-24)?
Its AUC(0-t) is 1050 ± 150 ng·h/mL.

What about the Cmax ([1]; male, beagle, in vivo, 4 mg/kg/day, Cmax) of the same molecule?
The Cmax was 1490 ± 440 ng/mL.

And the AUC(0-t) ([1]; male, beagle, plasma, 1.5 mg/kg/day, male dogs, 1.5 mg/kg/day 1-h iv infusion, day 28, plasma, LC-MS, mean ± SD, n=5, read-out: AUC0-24)?
The AUC(0-t) was 416 ± 209 ng·h/mL.

What about the “weight loss of euthanized animal” value (Sprague Dawley rats [2]; one female rat, euthanized day 10 of recovery) of the same molecule?
The value was 11%.

What about the “weight loss of euthanized animal” value (Sprague Dawley rats [2]; one male rat, euthanized day 6 of recovery) of the same molecule?
The value was 14%.

What about the mortality (Sprague Dawley rats [2]; rats, 5, 9 and 15 mg/kg/day iv 4 weeks + 2-week recovery) of the same molecule?
The mortality was “Mortality was only recorded at 15 mg/kg/day”.

What about the “Phos, inorganic phosphorus” value (Sprague Dawley rats [3]; 10 mg/kg/day iv) of the same molecule?
Its value is 1.96 ± 0.187 mmol/L.

And the “Phos, inorganic phosphorus” value (Sprague Dawley rats [3]; 20 mg/kg/day iv)?
Its value is 2.05 ± 0.26 mmol/L.
